Counter-ions that a name gives are not always drawn.
Columns and labels:
adult dentate gyrus = assay: Fluoxetine effect on neuronal precursor classes in the adult dentate gyrus of nestin-CFPnuc mice (confocal stereology, BrdU labeling); assay type: in vivo, mouse
Experimental: (§1) Immunohistochemistry. Tissues were fixed by transcardial perfusion with 30 ml of 4% (w/v) paraformaldehyde in PBS, pH 7.4. The brains were removed, cut longitudinally into two hemispheres and postfixed for 3 hrs at room temperature, then transferred to PBS and kept at 4° C. Serial sagittal sections, 50-μm thick, were cut with a Vibratome 1500 (Vibratome, St. Louis, Mo.). Immunostaining was carried following the standard procedure. The sections were incubated with primary antibodies to the target protein (see the list below) at 4° C. in PBS containing 0.2% Triton-100X and 3% BSA. After thorough washing with PBS, appropriate secondary antibodies (see the list below) were incubated in the same solution for 1 hr at room temperature. After washing with PBS, the sections were mounted on gelatine coated slides with DakoCytomation Fluorescent Mounting Medium (DakoCytomation, Carpinteria, Calif.). For the analysis of 5-bromo-2-deoxyuridine (BrdU) incorporation, sections were treated with 2M HCl for 30 min at 55° C., washed with PBS, treated with 1 mM sodium tetraborate for 10 min at room temperature, and finally washed with PBS. The following antibodies were used: chicken anti-GFP (Aves Laboratories, Tigard, Oreg.) 1:500; guinea pig anti-GFAP (Advanced Immunochemicals, Long Beach, Calif.) 1:500; mouse anti-nestin (Chemicon International, Temecula, Calif.) 1:100; mouse anti-NeuN (Chemicon) 1:800; rabbit anti Dcx (generous gift from Dr. C. A. Walsh, Harvard Medical School) 1:2500; rabbit anti-Prox I (generous gift from Dr. S. J. Pleasure, UCSF) 1:2000; rat anti-BrdU (Serotec, Raleigh, N.C.) 1:400; mouse anti-PSA-NCAM (Chemicon) 1:400; AlexaFluor 488 goat anti-chicken (Molecular Probes, Willow Creek Road, Eugene, Oreg.) 1:500; AlexaFluor 594 goat anti-mouse (Molecular Probes) 1:500; AlexaFluor 568 goat anti-rat (Molecular Probes) 1:500; Cy5 goat anti-guinea pig (Jackson Immunoresearch, West Grove, Pa.) 1:500; Cy5 goat anti-rabbit (Jackson Immunoresearch) 1:500; Texas Red donkey anti-chicken (Jackson Immunoresearch) 1:500.
(§2) Quantification. Quantitative analysis of cell populations was performed by means of design-based (assumption free, unbiased) stereology. Slices were collected using systematic-random sampling. One brain hemisphere was randomly selected per animal. The hemisphere was sliced sagittaly, in a lateral-to-medial direction, from the beginning until the end of the lateral ventricle, thus including the whole DG. The 50 μm slices, obtained with a 1500 Vibratome (Vibratome, St. Louis, Mo.), were collected in 6 parallel sets (5 in the case of the juvenile mice), each set consisting of 12 slices, each slice 300 μm apart from the next.
(§3) For counts in the DG, all the cells of each type described were counted in every slice, excluding those in the uppermost focal plane. The volume of the reference space (of the granule cell layer (GCL)+the subgranular zone (SGZ)) was calculated by the Cavalieri-point method. In the subventricular zone (SVZ), for BrdU counts, all the BrdU stained cells were counted in each slice, excluding those in the uppermost focal plane. For nestin-CFP cells, the two-stage approach was used. At least 10 optical disectors (20×20×20 μm), placed following a systematic-random manner, were applied on each slice. Then the volume of the space reference (of the SVZ) was estimated using the Cavalieri-point method.
(§4) All the imaging and quantification procedures were performed using a Zeiss LSM 510 confocal microscope and its software. Statistical analysis and graphs of the numeric data were obtained using SigmaPlot software (SYSTAT, Port Richmond, Calif.) and JMP (SAS Institute Inc., Cary, N.C.).
(§5) On the last day a single injection of BrdU, 150 mg/kg was also administered. […] On the last day they were also given a single injection of BrdU, 150 mg/kg. In both sets of experiments, animals were sacrificed either 24 h or 30 days after the end of the treatment and the BrdU injection.

juvenile dentate gyrus = assay: Fluoxetine effect on neuronal precursor classes in the juvenile dentate gyrus of nestin-CFPnuc mice; assay type: in vivo, mouse
Experimental: as §1, §2
In the young animals, all the BrdU cells were counted in each slice, excluding those in the uppermost focal plane. The number of nestin-CFPnuc stained cells, the QNPs, and the ANPs, was estimated using the two-stage approach. At least 5 optical dissectors (20×20×20 μm) placed in a systematic-random manner, were applied to each slice. Then the volume of the space reference (of the SGZ) was estimated using the Cavalieri-point method.
as §4, §5
The action of fluoxetine on stem/progenitor cells was investigated for similarity in both the juvenile and adult brain. […] In the DG of treated juvenile mice, precursor cells can be divided into the same categories as the cells in the adult brain (note that the animals are 20 or 49 days old at the time of analysis). […]

[1] = exposure of newborn (p4) mice; cited from earlier work
[2] = test system: subventricular zone (SVZ); assay: Fluoxetine effect on neurogenesis in the subventricular zone of adult nestin-CFPnuc mice; assay type: in vivo, mouse; conditions: 15 days treatment
Experimental: as §1, §2, §3
All the imaging and quantification procedures were performed using a Zeiss LSM 510 confocal microscope and its software. […]

[3] = test system: dentate gyrus (DG) of the adult brain; conditions: cited from earlier work
[4] = adult, 15 days treatment, 24 h, mean±SEM, n=8
[5] = adult, 15 days treatment, 24 h, n=6
[6] = adult, 15 days treatment, 24 h, vs vehicle
[7] = adult, 15 days treatment, 1 day after BrdU, n=8
[8] = adult, 15 days treatment, sacrificed 30 days later, n=6
[9] = 15 days from p5, 1 day, vs vehicle
[10] = 30 days after end of administration, n=5

## CNCCC(Oc1ccc(C(F)(F)F)cc1)c1ccccc1 (stereo not shown) [fluoxetine, fluoxetine hydrochloride]
Adult dentate gyrus; 7-month old mice, 10 mg/kg once per day for 15 days, 24 h after BrdU, vs vehicle
  increase in number of BrdU-labeled cells in the DG: 40.9%
Adult dentate gyrus; adult, 10 mg/kg/day 15 days, 24 h after BrdU, mean±SEM, n=8
  number of BrdU-labeled cells in the DG: 758±58
Adult dentate gyrus; adult, 15 days treatment, 24 h
  change in Dcx-positive cells (compared with PSA-NCAM-positive cells): Identical changes
Adult dentate gyrus; [4]
  number of ANP cells: 5745±506
  number of QNP cells: 4675±518
Adult dentate gyrus; [5]
  number of BrdU-labeled ANPs: 410±33
  number of BrdU-labeled QNPs: 90±16
Adult dentate gyrus; adult, 15 days treatment, 24 h, n=8
  number of PSA-NCAM-positive cells (NB1, NB2 and IN): 11298±719
Adult dentate gyrus; [6]
  change in number of BrdU-labeled QNPs: not affected
  change in number of QNP cells: no change
  fraction of dividing cells among ANPs: did not change
  fraction of dividing cells among QNPs: did not change
  increase in number of ANP cells: 49.6%
  increase in number of BrdU-labeled ANPs: 46.4%
  increase in number of CFPnuc-positive cells (QNPs and ANPs together): 24.7%
  increase in number of PSA-NCAM-positive cells (NB1, NB2 and IN): 26.5±7.2%
Adult dentate gyrus; [7]
  number of IN cells: 858±88
  number of NB1 cells: 6988±538
  number of NB2 cells: 3452±413
Adult dentate gyrus; adult, 15 days treatment, 1 day after BrdU, vs vehicle
  increase in number of NB1 cells: 42.1%
Adult dentate gyrus; adult, 15 days treatment, sacrificed 30 days later
  fraction of BrdU+NeuN+ cells among total BrdU-positive cells: 92.8±1.6%
Adult dentate gyrus; [8]
  number of BrdU-labeled NeuN-positive neurons: 316±29
  number of BrdU-labeled cells in the DG: 342±24
Adult dentate gyrus; adult, 15 days treatment, sacrificed 30 days later, vs vehicle
  increase in number of BrdU-labeled cells in the DG: 46.2%
Juvenile dentate gyrus; 15 days from p5, 1 day
  number of ANPs: 16972±1872
  number of QNPs: 42048±4328
  number of dividing (BrdU-labeled) ANP cells: 1698±184
  number of dividing (BrdU-labeled) QNP cells: 2021±434
  number of nestin-CFPnuc cells: 61256±4970
Juvenile dentate gyrus; 15 days from p5, 1 day after BrdU
  number of BrdU-positive cells in the DG: 9796±834
Juvenile dentate gyrus; [9]
  change in number of dividing (BrdU-labeled) QNP cells (not statistically significant): 28.7%
  fraction of BrdU+NeuN+ cells among total BrdU-positive cells (FIG. 7K BrdU-labeled QNP, FIG. 7L BrdU-labeled ANP): did not change
  increase in number of ANPs: 52.6%
  increase in number of dividing (BrdU-labeled) ANP cells: 67.7%
  increase in number of nestin-CFPnuc cells: 35.6%
Juvenile dentate gyrus; 15 days from p5, 1 day, vs vehicle, p=0.134
  change in number of QNPs (did not reach statistical significance): 23.5%
Juvenile dentate gyrus; 15 days from p5, 30 days after end of administration, vs vehicle
  increase in number of BrdU-positive cells in the DG: 42.2%
Juvenile dentate gyrus; 15 days treatment from p5, 1 day after BrdU, vs vehicle
  increase in number of BrdU-positive cells in the DG: 36.3%
Juvenile dentate gyrus; 30 days after end of administration
  fraction of BrdU- and NeuN-double-positive cells among total BrdU-positive cells: 93.6%
Juvenile dentate gyrus; [10]
  number of BrdU- and NeuN-double-positive cells: 1892±119
  number of BrdU-positive cells in the DG: 2026±153
Juvenile dentate gyrus; 30 days after end of administration, vs vehicle
  increase in number of BrdU- and NeuN-double-positive cells: 42.3%
[1]
  anxiety when animals become adults: elevated anxiety
[2]
  number of BrdU-labeled cells in the SVZ: 9550±769
  number of nestin-CFPnuc cells in the SVZ: 473±55 ×10^3
[2]; in mm³
  volume of the SVZ: 0.603±0.051
[2]; vs vehicle
  change in number of BrdU-labeled cells in the SVZ: No changes
  change in number of nestin-CFPnuc cells, their density and volume of the SVZ: no significant changes
[3]
  generation of new neurons in the dentate gyrus: increases generation of new neurons
